# Measured values from patent publication US12440541B2, “Methods for expanding and activating γσ T cells for the treatment of cancer and related malignancies” (priority 2017, dated 2025).
# Tested on: γδ T cells
# Assay: γδ T cell expansion in defined medium
# Format: cell-based, human
# Details: defined medium with IL-2, IL-15, Amphotericin B
smiles,measurement,setting,value
"O=P(O)(O)C(O)(Cn1ccnc1)P(=O)(O)O [Zoledronate, Zoledronic acid]",fold increase in absolute number of γδ T cells,"Donor 20, Day 0 to Day 17","3,350 fold"
same,fold increase in absolute number of γδ T cells,"Donor 20, Day 0 to Day 22","11,060 fold"
same,fold increase in absolute number of γδ T cells,"Donor 20, Day 0 to Day 29","31,666 fold"
same,fold increase in absolute number of γδ T cells,"Donor 21, Day 0 to Day 17","4,633 fold"
same,fold increase in absolute number of γδ T cells,"Donor 21, Day 0 to Day 22","12,320 fold"
same,fold increase in absolute number of γδ T cells,"Donor 21, Day 0 to Day 29","32,833 fold"
